We go through 2 compounds from patent EP4663632A1, “COMPOUNDS USEFUL FOR THE MODULATION OF THE ACTIVITY OF STING” (Sulis Therapeutics ApS, priority 2024, dated 2025).

Test [1] concerns the target STING (Homo sapiens, UniProt Q86WV6). In words: Inhibition of STING-agonist-induced IFN-β release in HFF-1 cells (HFF-1 STING inhibition assay). It counts as cell-based. As to conditions: 24h with compound, then 0.3 µM diABZI c3, 6h; ELISA. On the set-up: host or cells: HFF-1 human foreskin fibroblasts. As for the experimental part:
To evaluate cellular effects of test compounds, we assessed inhibition of STING-agonist-induced IFN-β release in human foreskin fibroblasts HFF-1 cells (ATCC, SCRC-1041). Cells were seeded at a density of 10.000 cells/well in 96-well Nunclon Delta surface treated culture plate in DMEM growth medium (supplemented with 10% FBS, 1% Pen-strep). Cells were incubated over-night at 37°C 5% CO2 to allow adhesion. Next morning growth medium was renewed and a 7x concentration 3-step dilution series of test compounds (2,1% DMSO) diluted in growth medium were added to the appropriate well. Final DMSO concentration was 0.3%. […] Cells culture plates were further incubated, and supernatants were harvested after 6h and immediately stored at -20°C until determination of IFN-β release. Cell supernatants were analysed for IFN-β release using DuoSet human IFN-β ELISA (R&D systems, DY-814) following manufactures protocol except using 96-well, half-volume plates from Corning and subsequently use half volume for all steps throughout the protocol. In brief, plates were coated o/n with a 130x dilution of capturing antibody in PBS. Wells were washed 3x with PBS-T20 followed by blocking with 1% BSA diluted in TBS-T20 for 1h. […] Wells were washed 3x with PBS-T20 and detection antibody diluted 1:60 in 1% BSA in PBS was added to each well and incubated for 2h at rt. […]

The target in test [2] is T1, STING (Mus musculus, UniProt Q3TBT3).
T1 sequence (Q3TBT3 1-378): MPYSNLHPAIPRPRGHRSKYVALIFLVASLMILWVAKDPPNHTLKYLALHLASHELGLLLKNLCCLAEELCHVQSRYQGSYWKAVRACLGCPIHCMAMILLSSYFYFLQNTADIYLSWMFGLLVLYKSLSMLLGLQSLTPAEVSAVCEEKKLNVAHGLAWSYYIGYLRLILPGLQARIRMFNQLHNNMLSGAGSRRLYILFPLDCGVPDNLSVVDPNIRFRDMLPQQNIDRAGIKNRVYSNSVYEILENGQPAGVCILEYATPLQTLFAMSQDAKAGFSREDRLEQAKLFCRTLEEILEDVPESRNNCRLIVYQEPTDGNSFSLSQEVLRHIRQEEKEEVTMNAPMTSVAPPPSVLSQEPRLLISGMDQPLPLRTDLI
In words: IFN-β secretion from mouse RAW264.7 cells treated with diABZI. It counts as cell-based. On the set-up: endogenous in cells; host or cells: RAW264.7 mouse cells. As to conditions: 1.8 µM diABZI c3 and 0.05 µM Example compound. As to the method: As expected, RAW264.7 cells treated with 1.8 µM diABZI c3 increased IFN-β secretion, resulting in a media concentration of around 1000 pg/mL. In contrast, cells treated with 1.8 µM diABZI c3 and 0.05 µM Example compounds 14, 16 or 24 reduced this expression to approximately 500 pg/mL.

Test [3] addresses C-terminal domain (CTD) of human STING (Homo sapiens, UniProt Q86WV6). Kind of test: STING binding FP assay II. On the set-up: recombinant human STING protein (155-379). To be noted: 7 nM STING.

Sequence of STING (Homo sapiens, UniProt Q86WV6) (Q86WV6 whole entry): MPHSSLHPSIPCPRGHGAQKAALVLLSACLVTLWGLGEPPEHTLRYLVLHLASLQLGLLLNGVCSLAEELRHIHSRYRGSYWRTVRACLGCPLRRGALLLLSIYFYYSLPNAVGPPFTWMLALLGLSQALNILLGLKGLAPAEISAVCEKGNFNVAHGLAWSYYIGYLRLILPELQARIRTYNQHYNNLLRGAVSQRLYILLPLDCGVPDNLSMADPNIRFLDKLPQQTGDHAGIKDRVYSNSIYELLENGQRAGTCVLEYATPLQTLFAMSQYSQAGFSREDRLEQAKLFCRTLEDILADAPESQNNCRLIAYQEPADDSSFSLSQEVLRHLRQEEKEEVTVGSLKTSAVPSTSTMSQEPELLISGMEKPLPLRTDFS
Sequence of C-terminal domain (CTD) of human STING (Q86WV6 155-379): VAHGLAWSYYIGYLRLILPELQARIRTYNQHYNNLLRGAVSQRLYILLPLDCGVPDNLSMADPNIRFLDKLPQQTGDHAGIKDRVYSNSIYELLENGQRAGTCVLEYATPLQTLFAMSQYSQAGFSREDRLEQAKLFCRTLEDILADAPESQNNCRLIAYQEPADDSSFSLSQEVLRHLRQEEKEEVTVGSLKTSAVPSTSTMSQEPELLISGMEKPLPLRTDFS

`CCn1nc(C)cc1C(=O)N=c1n(C)c2cc(C(N)=O)ccc2n1CCC(CCn1c(=NC(=O)c2cc(C)nn2CC)n(C)c2cc(C(N)=O)ccc21)OCC(=O)NCCOCCOCCOCCOCCC(=O)NCCOCCOCCOCCOCCNc1cccc2c1C(=O)N(C1CCC(=O)NC1=O)C2=O` (stereo not drawn) [Example 16]: the EC50 at STING [1] is under 200 nM. Further, the IFN-β media concentration entry on STING [2] is “approximately 500 pg/mL”. Further, in test [3], the concentration for half-maximal inhibition (IC50) came to 4.5 nM.
Taken in the same sequence, the figures for `CCn1nc(C)cc1C(=O)N=c1n(C)c2cc(C(N)=O)ccc2n1CCC(CCn1c(=NC(=O)c2cc(C)nn2CC)n(C)c2cc(C(N)=O)ccc21)OCC(=O)NCCOCCOCCOCCOCCC(=O)NCCOCCOCCOCCOCC(=O)N[C@H](C(=O)N1C[C@H](O)C[C@H]1C(=O)NCc1ccc(-c2scnc2C)cc1)C(C)(C)C` (stereo partly drawn) [Example 14] were 1000 to 5000 nM, “approximately 500 pg/mL” and 5.7 nM.
